Legend:
herpes zoster (shingles) = assay: Case report: patient on sub-antibacterial doxycycline hyclate who presented with shingles; assay type: in vivo, human; settings: one patient
Experimental: The below Example summarizes an incidence using 20 mg doxycycline hyclate tablets administered twice a day.
A person (hereinafter “the patient”) had been taking generic Periostat® (20 mg doxycycline hyclate b.i.d.) for over a six month period when they presented with shingles. […] By this time, the patient had blistering and vesicular lesions, and lesions consisting of deep scabs on their face (e.g., upper cheek), neck and chest. All lesions presented on patient's left side without crossing the midline.
The patient also reported being lethargic, weak and dizzy.
The medical doctor who examined the patient was very surprised to hear that the lesions were not painful. They said that the lesions were at the stage where they typically cause intense pain. The doctor predicted that, even if the lesions were not painful at the moment, they would become very painful shortly, particularly since antiviral therapy would be initiated after 72 hours of the appearance of the characteristic lesions. Accordingly, the doctor prescribed the narcotic pain reliever Percocet®.
The doctor also prescribed VALTREX®, an antiherpetic medication, in a dose of a 1 gram tablet, taken 3 times a day for 7 days. The doctor advised that VALTREX® should have been started within 2 or 3 days of the first appearance of a lesion in order to effectively minimize pain.
The patient began taking the VALTREX®, as prescribed. […]

[1] = Plasma concentration of COL-3 in humans; assay type: in vivo; settings: dose of about 10 to about 20 mg/day
Experimental: An example of a COL is 6-demethyl-6-deoxy-4-de(dimethylamino)tetracycline (COL-3). COL-3 is administered in doses of up to about 200 mg/day, preferably about 150 mg/day, more preferably about 100 mg/day, or in amounts that result in plasma concentrations of up to about 50 μg/ml, about 40 μg/ml or about 30 μg/ml. For example, a dose of about 10 to about 20 mg/day of COL-3 produces plasma concentrations in humans of about 1.0 μg/ml.

| plasma concentration in humans [1] | Compound | pain reported by the patient throughout the course of shingles (herpes zoster (shingles); 20 mg b.i.d., no analgesic taken) | inhibition of the pain typically associated with lesions of shingles (herpes zoster (shingles); 20 mg tablets twice a day, taken for over six months before onset, VALTREX started over 96 hours after first lesion, no analgesic) |
| --- | --- | --- | --- |
|  | doxycycline hyclate | did not feel any pain whatsoever | virtually complete inhibition |
| about 1.0 μg/ml | NC(=O)C1=C(O)C[C@@H]2C[C@@H]3Cc4cccc(O)c4C(=O)C3=C(O)[C@]2(O)C1=O [COL-3, 6-demethyl-6-deoxy-4-dedimethylaminotetracycline] |  |  |
